Laboratory results taken from patent US20200315996A1 (Board of Trustees, Southern Illinois University, priority 2016, published 2020).

What was measured:
[1] = test system: genes related to inflammation; experiment: RNA sequencing and qPCR of endometriotic lesions; assay type: in vivo, mice; conditions: 3 weeks vs control
Description: The endometriotic lesions were screened by RNA sequencing for the expression of a variety of genes of interest. Total RNA was isolated from the lesions using the RNeasy mini kit (#74104, Qiagen). RNA quality was assessed, and RNA-sequencing (RNA-seq) were performed at the Functional Genomics Core Facility of University of Illinois. Briefly, the stranded RNA-seq libraries were prepared with IIlumina's TruSeq Stranded RNA Sample Prep kit (# RS-122-2201, Illumina). The libraries were pooled in equimolar concentration, and the pool was quantitated by qPCR and sequenced on one lane for 101 cycles on a HiSeq2500 (Illumina) using a HiSeq SBS sequencing kit (# FC-401-4002, Illumina). Fastq files were generated and demultiplexed with the bcl2fastq v1.8.4 Conversion Software (Illumina). Quantitative PCR (qPCR) was performed as described previously [Reardon, 2012]. The 5′-3′ sequences of the primer pairs (forward and reverse primer pairs) used to determine the presence of different genes are shown in Table 3. For each gene, the name of the gene, the accession number of the gene, the 5′-3′ sequence of the paired primers, and the length of the amplicon obtained is provided in Table 3. All experimental data were subjected to one-way ANOVA tests and the differences between individual means were tested by a Tukey multiple-range test using Prism 5.0 (GraphPad). qPCR data were tested by t-test using Prism 5.0. Tests of significance were performed using the appropriate error terms according to the expectation of the mean squares for error. […] Data are presented as mean with standard error of the mean (SEM).

[2] = test system: p-STAT3; experiment: Immunohistochemistry of endometriotic lesions, p-STAT3; assay type: in vivo, mice; conditions: 3 weeks; for % of p-STAT3 positive cells/total cells/0.007 mm^2, Stroma: control 11.5 ± 4.4
Source text: The presence and location of different proteins in the tissues obtained from the recipient mice. Samples of uterine tissue were isolated from the recipient mice, fixed by standard histological methods, and embedded in paraffin. Thin sections (5 μm) of the paraffin-embedded tissues were screened with standard immunohistochemical methods using antibodies to identify the expression of in the uterine tissues. […] The expression of MKI67, ESR1, PGR, p-CHUK, p-STAT3, NOS2 and PTGS2 proteins in uterine tissues, as determined by immunohistochemical analysis of uterine tissue sections, was semiquantitatively analyzed. Levels of apoptosis were analyzed by TUNEL assay and also semiquantitatively analyzed. […] Histological sections were obtained from 4 different lesions. For each section, three different areas measuring 0.007 mm^2 were chosen. In each of those areas, the total number of epithelial or stromal cells was counted, as was the number of cells that tested positive for expressing MKI67 (a marker of cellular proliferation), steroid receptors ESR1 and PGR, and inflammatory signaling molecules p-CHUK, p-STAT3, NOS2 and PTGS2 proteins.

[3] = test system: mice; conditions: cited from earlier work

SMILES: O=C(Nc1ccc([N+](=O)[O-])cc1Cl)c1cc(Cl)ccc1O [niclosamide, 5-chloro-N-(2-chloro-4-nitrophenyl)-2-hydroxybenzamide]
- Ccl17 level in the endometriotic lesions ([1]; 200 mg/kg b.w./day): increased
- expression of genes related to inflammation (Cxcl14, Lep, Lpo, Muc13, Trpc3 and Ptprz1) in the endometriotic lesions ([1]; qPCR n=6-8, 200 mg/kg b.w./day): significantly decreased
- expression of Id4 and Wnt7a in treated lesions ([1]; qPCR, 200 mg/kg b.w./day): reduced
- % of p-STAT3 positive cells/total cells/0.007 mm^2, Stroma ([2]; 100 mg/kg b.w./day oral): 6.9 ± 1.9%
- % of p-STAT3 positive cells/total cells/0.007 mm^2, Epithelium ([2]; 100 mg/kg b.w./day oral, control 54.1 ± 3.9): 59.0 ± 5.4%
- % of p-STAT3 positive cells/total cells/0.007 mm^2, Stroma ([2]; 200 mg/kg b.w./day oral): 4.1 ± 1.0%
- % of p-STAT3 positive cells/total cells/0.007 mm^2, Epithelium ([2]; 200 mg/kg b.w./day oral, control 54.1 ± 3.9, p < 0.001): 26.4 ± 3.8 %
- LD50, acute toxicity [3]: > 1500 mg/kg b.w.
